Measured values published in patent US8987193B2, “Nisin derivatives and the use thereof” (University College Cork—National University of Ireland, Cork, priority 2008, dated 2015).
Ends that are not written are not given here.

Key:
[1] = tested on: Listeria monocytogenes 33090; assay: Deferred antagonism assay; assay type: cell-based; conditions: nisin strain; L. monocytogenes 33090
Description: (§1) Deferred antagonism assays were performed by replicating strains on GM17 or GM17 x-gal agar plates and allowing them to grow overnight before overlaying with either GM17/BHI/TS/MH agar (0.75% w/v agar) seeded with the appropriate indicator strain. Zone size was calculated as the diameter of the zone of clearing minus the diameter of bacterial growth (5 mm) For higher throughput screening of N20PXX, XM21VX, XXK22T and XXX banks deferred antagonism assays were performed by replicating strains using a 96 pin replicator (Boekel) or spotting 5 μl of a fresh overnight culture on GM17 agar plates and allowing them to grow overnight. […] Additional sets of indicators were employed to further assess/reassess the bioactivity of a number of strains. […] For well-diffusion assays molten agar was cooled to 48° C. and seeded with the appropriate indicator strain. The inoculated medium was rapidly transferred into sterile Petri plates in 50 ml volumes, allowed to solidify and dried. Wells (4.6 mm in diameter) were then made in the seeded plates. Purified nisin and mutant nisins were resuspended in 0.005% acetic acid, serially diluted, 50 μl volumes were dispensed into the aforementioned wells and the plates incubated at 37° C. overnight. Bioactivity was expressed as arbitrary units/ml (AU/ml) and calculated as the reciprocal of the highest dilution that gave a definite zone multiplied by the conversion factor (i.e. 20 when 50 μl was used) (Ryan et al., 1996).

[2] = tested on: Listeria monocytogenes 33077; assay: Deferred antagonism assay; assay type: cell-based; conditions: nisin strain; L. monocytogenes 33077
Description: as §1

[3] = tested on: Listeria monocytogenes 33037; assay: Deferred antagonism assay; assay type: cell-based; conditions: nisin strain; L. monocytogenes 33037
Description: as §1

[4] = tested on: Listeria monocytogenes F2365; assay: Deferred antagonism assay; assay type: cell-based; conditions: nisin strain; L. monocytogenes F2365
Description: as §1

[5] = tested on: Listeria monocytogenes CD1038; assay: Deferred antagonism assay; assay type: cell-based; conditions: nisin strain; L. monocytogenes CD1038
Description: as §1

[6] = tested on: Listeria monocytogenes SLCC 6793; assay: Deferred antagonism assay; assay type: cell-based; conditions: nisin strain; L. monocytogenes SLCC 6793
Description: as §1

[7] = tested on: Listeria monocytogenes 33013; assay: Deferred antagonism assay; assay type: cell-based; conditions: nisin strain; L. monocytogenes 33013
Description: as §1

L. monocytogenes EGDe = assay: Deferred antagonism assay; assay type: cell-based; parameters: key: −, no inhibition; (+), clear zone directly above the colony; +, 1-5 mm zone; ++, 6-10 mm zone; +++; conditions: nisin strain; Listeria monocytogenes EDGe
Description: as §1

L. monocytogenes CBC1 = assay: Deferred antagonism assay; assay type: cell-based, Listeria monocytogenes; parameters: key: + = Enhanced bioactivity relative to control; − = Bioactivity equal to or less than control; NA = no activity evident; conditions: producing strain; L. mono CBC1
Method in brief: (§2)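 Well-diffusion testing of purified nisin variants in 0.005% acetic acid, serially diluted, 37° C overnight; AU/ml = reciprocal of last dilution with definite zone × 20. Deferred antagonism: overnight GM17 colonies overlaid with seeded soft agar (0.75%); zone = clearing diameter minus 5 mm.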

L. monocytogenes CBC3 = assay: Deferred antagonism assay; assay type: cell-based, Listeria monocytogenes; parameters: key: + = Enhanced bioactivity relative to control; − = Bioactivity equal to or less than control; NA = no activity evident; conditions: producing strain; L. mono CBC3
Method in brief: as §2

L. monocytogenes CBC2 = assay: Deferred antagonism assay; assay type: cell-based, Listeria monocytogenes; parameters: key: + = Enhanced bioactivity relative to control; − = Bioactivity equal to or less than control; NA = no activity evident; conditions: producing strain; L. mono CBC2
Method in brief: as §2

L. plantarum CBC6 = assay: Deferred antagonism assay; assay type: cell-based, Lactobacillus plantarum; parameters: key: + = Enhanced bioactivity relative to control; − = Bioactivity equal to or less than control; NA = no activity evident; conditions: producing strain
Method in brief: as §2

[8] = tested on: 30 L. monocytogenes and 3 L. innocua strains; assay: Deferred antagonism assay, collection of Listeria strains; assay type: cell-based; conditions: of 30 L. monocytogenes and 3 L. innocua strains
Description: as §1

C. sporogenes CBC5 = assay: Deferred antagonism assay; assay type: cell-based, Clostridium sporogenes; parameters: key: + = Enhanced bioactivity relative to control; − = Bioactivity equal to or less than control; NA = no activity evident; conditions: producing strain
Staph. aureus DPC5245 = assay: Deferred antagonism assay; assay type: cell-based; conditions: producing strain; diameter of zone minus 5 mm; average of duplicates; St. aureus DPC5245
Method in brief: (§3)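 Producer strains replicated on GM17 agar, grown overnight, then overlaid with soft agar (0.75% w/v) seeded with indicator strain. Zone size = clearing diameter minus 5 mm growth diameter, relative to NZ9800 pCI372nisA control; mean of duplicates.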

[9] = tested on: Strep. agalactiae ATCC13813; assay: Deferred antagonism assay; assay type: cell-based; conditions: producing strain, diameter of zone minus 5 mm, average of duplicates
[10] = tested on: Staph. aureus ST528 (MRSA); assay: Deferred antagonism assay; assay type: cell-based; conditions: producing strain, diameter of zone minus diameter of bacterial growth (5 mm), average of duplicates
Method in brief: as §3

L. lactis CBC7 = assay: Deferred antagonism assay; assay type: cell-based; parameters: key: + = Enhanced bioactivity relative to control; − = Bioactivity equal to or less than control; NA = no activity evident; conditions: producing strain
Method in brief: as §2

L. lactis CBC8 = assay: Deferred antagonism assay; assay type: cell-based; parameters: key: + = Enhanced bioactivity relative to control; − = Bioactivity equal to or less than control; NA = no activity evident; conditions: producing strain
Method in brief: as §2

S. aureus CBC4 = assay: Deferred antagonism assay; assay type: cell-based; parameters: key: + = Enhanced bioactivity relative to control; − = Bioactivity equal to or less than control; NA = no activity evident; conditions: producing strain
Method in brief: as §2

Substance	Activity score (zone) [1]	Activity score (zone) [2]	Activity score (zone) [3]	Activity score (zone) [4]	Activity score (zone) [5]	Activity score (zone) [6]	Activity score (zone) [7]	Activity score (zone) (L. monocytogenes EGDe)	Bioactivity relative to control (L. monocytogenes CBC1)	Bioactivity relative to control (L. monocytogenes CBC3)	Bioactivity relative to control (L. monocytogenes CBC2)	Bioactivity relative to control (L. plantarum CBC6)	number of strains with enhanced bioactivity (relative to the control) [8]	number of strains with equal levels of bioactivity [8]	Bioactivity relative to control (C. sporogenes CBC5)	zone size relative to that of the NZ9800 pCI372nisA control (Staph. aureus DPC5245) [%]	zone size relative to that of the NZ9800 pCI372nisA control [9] [%]	zone size relative to that of the NZ9800 pCI372nisA control [10] [%]	Bioactivity relative to control (L. lactis CBC7)	Bioactivity relative to control (L. lactis CBC8)	further results
NisinA K22A (ITSISLCTPGCKTGALMGCNMATATCHCSIHVSK; not fully specified; also: lantibiotic: lanthionine rings and dehydro residues not placed; UniProt P13068 24-57, looked up, variant K22A) [nisin A derivative, hinge substitution K22A]	+ (+, 1-5 mm zone)	+ (+, 1-5 mm zone)	+ (+, 1-5 mm zone)	+ (+, 1-5 mm zone)	+ (+, 1-5 mm zone)	++ (++, 6-10 mm zone)	+ (+, 1-5 mm zone)	+ (+, 1-5 mm zone)	−	−	+	−	16	17	−	117	137	126	−	+	Bioactivity relative to control (S. aureus CBC4): −
NisinA M21S (ITSISLCTPGCKTGALMGCNSKTATCHCSIHVSK; not fully specified; also: lantibiotic nisin: dehydrated residues and thioether rings not placed; UniProt P13068 24-57, looked up, variant M21S) [nisin A derivative, hinge substitution M21S]	+ (+, 1-5 mm zone)	++ (++, 6-10 mm zone)	++ (++, 6-10 mm zone)	++ (++, 6-10 mm zone)	++ (++, 6-10 mm zone)	+++ (+++, <10 mm zone)	+ (+, 1-5 mm zone)	++ (++, 6-10 mm zone)	−	+	+	−	26	7	+	110	110	105	−	+	Bioactivity relative to control (S. aureus CBC4): +
NisinA M21I (ITSISLCTPGCKTGALMGCNIKTATCHCSIHVSK; not fully specified; also: lantibiotic: lanthionine rings and dehydro residues not placed; UniProt P13068 24-57, looked up, variant M21I) [nisin A derivative, hinge substitution M21I]	+ (+, 1-5 mm zone)	+ (+, 1-5 mm zone)	++ (++, 6-10 mm zone)	+ (+, 1-5 mm zone)	++ (++, 6-10 mm zone)	+++ (+++, <10 mm zone)	+ (+, 1-5 mm zone)	+ (+, 1-5 mm zone)	−	−	+	−	17	15	+	115	92	107	+	+	number of strains with reduced activity [8]: 1; Bioactivity relative to control (S. aureus CBC4): +
NisinA M21G (ITSISLCTPGCKTGALMGCNGKTATCHCSIHVSK; not fully specified; also: lantibiotic: lanthionine rings and dehydro residues not placed; UniProt P13068 24-57, looked up, variant M21G) [nisin A derivative, hinge substitution M21G]	+ (+, 1-5 mm zone)	+ (+, 1-5 mm zone)	+ (+, 1-5 mm zone)	+ (+, 1-5 mm zone)	+ (+, 1-5 mm zone)	++ (++, 6-10 mm zone)	+ (+, 1-5 mm zone)	−	−	−	+	−	10	19	+	123	115	125	−	−	number of strains with reduced activity [8]: 4; Bioactivity relative to control (S. aureus CBC4): +
